Reference: publication PMC6304418, “A Novel Compound Targeting Protease Receptor 1 Activators for the Treatment of Glioblastoma” (Frontiers in Neurology, 2018)
Entries after “also recorded” stand apart in the source; their conditions may differ. Where a SMILES comes first, the peptide text is derived from it. The star is where a group is joined. Tos = Cc1ccc(S(=O)(=O)*)cc1; CH2Cl = ClC*

Experiments:
glioma cells (CNS-1) = assay: Wound healing (wound-closure) assay; assay type: cell-based, rat; conditions: SIXAC 1 μM, 4 h, FCS-free medium; control 10.14 ± 0.67%; p = 0.02
Description: The effect of SIXAC on the coordinated movement of the glioma cells was evaluated using a wound healing assay. The cells were seeded in 24-well plates at a density of 5 × 10^4cells/well. Cells were cultures in FCS-free medium for 24 h. A wound was established by scraping using 10 μl pipette tip. Cells were washed twice with warm PBS and fresh FCS-free medium containing 1 μM SIXAC was added. Image acquisition of wound gap closure (%) was carried out following 4 h of incubation using a Nikon Eclipse microscope. Images were analyzed using Fiji software ([37]).

[1] = tested on: human normal pooled citrated plasma; assay: Coagulation in plasma (PT, aPTT, TT)
Description: HemosIL normal control (Instrumentation Laboratory), was used as human normal pooled citrated plasma from healthy donors. The lyophilized human plasma containing buffer, stabilizers and preservatives, was reconstituted using standard laboratory methods. The plasma was exposed in-vitro to indicated concentrations of SIXAC for 10 min. Next, prothrombin time (PT), activated partial thromboplastin time (aPTT) and thrombin time (TT) were measured. All tests were carried out with an ACLTOP® 500 autoanalyzerat in the Sheba medical center (Israel) MegaLab according to standard operating procedures (SOP). The results represent an average of 5 measures.

[2] = tested on: thrombin mediated PAR1 activation (pERK/ERK) in CNS-1 cells; assay: ERK activation (pERK/ERK, Western blot) in CNS-1 cells; assay type: cell-based, rat; conditions: thrombin 1 U/ml + SIXAC 100 nM, 10 min; n = 3; thrombin alone 2.09 ± 0.28, p < 0.03
Description: Cells were seeded (1 × 10^6 cells/75 cm^2 flask) and incubated for 24 h. Then the medium was replaced by FCS-free medium for another 24 h. The cells were treated for 10 min with thrombin (1 U/ml), SIXAC (100 nM), a combination of thrombin and SIXAC or a FCS-free medium which was used as a control (n = 3 for each treatment). The cells were washed and lysed in RIPA buffer (containing in mM: 50 TRIS HCl pH 8, 150 NaCl, 1% NP-40, 0.5% sodium deoxycholate, and 0.1% SDS), a protease inhibitor cocktail (Merck Millipore 539134, 1:100), 0.1 mM sodium orthovanadate and 2 mM PMSF. The cells were scraped, collected and centrifuged (16,000g × 20 min) at 4°C. The supernatants were collected, and protein concentration was determined by means of a bicinchoninic acid (BCA) assay. Each sample (20 μg) was separated by SDS-polyacrylamide gel electrophoresis. The proteins were transferred onto nitrocellulose membranes. Membranes were incubated with mouse anti-phosphorylated Extracellular signal-Regulated Kinase (pERK) antibody (1:10,000, M8159, Sigma), for 1.5 h at room temperature (RT) and washed with Tris-buffered saline and 0.1% Tween 20 (TBST). Membranes were then incubated at RT with horseradish peroxidase-conjugated goat anti-mouse antibody (1:10,000, Jackson Immunoresearch Laboratories). […] Protein bands were detected by a peroxidase-based enhanced chemiluminescence (ECL) method. […]

[3] = tested on: CNS-1 tumors in rat brains; assay: Histopathology of CNS-1 GBM rat brains (H&E, Ki67); assay type: in vivo
Description: Rats were allocated to three groups. 1. Control group (n = 15) treated with alzet-pumps contain saline. 2. Moderate dose treated group (n = 16) treated with alzet-pump containing SIXAC (2μg/kg/day). 3. High dose treated group (n = 14) treated with alzet-pumps contain SIXAC (20μg/kg/day). Survival was registered daily and the brains were dissected immediately after death determination and were placed in 4% PFA and kept at 4°C. Upon MRI scanning the brains were moved to PBS containing tubes, scanning was performed and ROI were quantified.
Formalin-fixed, paraffin-embedded brains were serially sectioned into 4 μm sections and stained with Hematoxylin and Eosin (H&E). Tumor localization and detailed evaluation was conducted by a senior neuropathologist (NS). Mitosis rate was assessed manually by 2 observers who analyzed 10 fields from each examined brain. Serial 4 μm sections were used for immune-histochemical staining using a commercially available monoclonal rabbit anti-Ki67 antibody (clone SP6,# RM-9106-S, Thermo Scientific, 1:300) according to standard procedures and fully automated protocol. A positive control was added on the right side of the slides for immune-histochemistry. The slides were automatically scanned via Aperio Versa 200 System (leica) using X20 and X40 equivalent objectives. Digital images were captured with Leica DM6000B microscope by AperioImageScope software. The Ki67 index was defined as positive stained nuclei (DAB positive)/all stained nuclei. Ten fields from each tested brain were used for analysis of Ki67 index. The indices were automatically calculated by means of ImmunoRatio application (Version 1.0c) ([43]).

CNS-1 colonies = assay: Colony formation assay; assay type: cell-based, rat; conditions: SIXAC 1 μM, 5 days; colonies > 1 mm; control 13.9 ± 1.09; p = 0.033
Description: The cells were seeded in 6-well plates at a density of 100 cells/well. After 24 h, fresh medium with 1 μM SIXAC was added. Cells were incubated for 5 days, until colonies were formed. Cells were washed with PBS, stained with […] crystal violet (Sigma-Aldrich, C0075) in absolute ethanol for 20 min and then washed again with PBS and dried for 24 h. Colonies that were bigger than 1 mm were counted using Fiji software ([37]–[40]).

Cc1ccc(S(=O)(=O)N[C@@H](C)C(=O)N[C@H](C(=O)N[C@@H](CC(C)C)C(=O)N[C@@H](CC(=O)O)C(=O)N2CCC[C@H]2C(=O)N[C@@H](CCCNC(=N)N)C(=O)CCl)[C@@H](C)O)cc1 [SIXAC] (Tos-ATLDPR-CH2Cl)
wound-closure percentage (glioma cells (CNS-1)): 7.27 ± 0.68%
margin of coagulation-affecting concentration over IC50 for thrombin inhibition ([1]; 10^−4M vs. IC50 for thrombin inhibition): at least 4.5 orders of magnitude
concentration at which coagulation tests (PT, aPTT, TT) are affected ([1]; human plasma exposed 10 min, affected only at this concentration, average of 5 measures): 10^−4 M
effect on PT, aPTT and TT (in words) ([1]; human plasma exposed 10 min, concentrations equivalent to those used to treat animals, average of 5 measures): no clinical significant effects; also recorded: The effect was minimal for the therapeutic dosages used in the experiment
pERK/ERK ratio, thrombin with SIXAC [2]: 0.99 ± 0.21
mitosis rate (number of mitosis/field, H&E) ([3]; SIXAC treated rats, 10 fields per brain, mean ± SEM, control 7.75 ± 1.45, p = 0.03): 4.9 ± 0.2 mitosis/field
Ki67 index ([3]; SIXAC treated rats, positive/all stained nuclei, ImmunoRatio, ten fields per brain, mean ± SEM, control 21.55 ± 0.11, p < 0.001): 12.74 ± 0.23
H&E finding in a long survivor rat ([3]; high dose 20μg/kg/day long survivor, sacrificed at day 40): large cystic area containing residual tissue with foamy macrophages
number of formed colonies (CNS-1 colonies): 10.5 ± 1.06
